In patent publication US12240827B2, “Serotonin 5-HT2B inhibitory compounds” (Zoetis Services LLC, priority 2019, dated 2025):

Tests used:
[1] = target: T1, hERG (Homo sapiens, UniProt Q12809); assay: hERG in-vitro assay, IonWorks Barracuda population patch clamp; type: cell-based; settings: hERG/HEK293 cells; hERG current block, 5 minutes exposure
T1 construct: stably transfected with full length hERG cDNA; expressed in transfected cells; host or cells: HEK293
Method: Stock solutions of compounds of the invention and positive control (cisapride; 0.001-3 μM) were prepared in DMSO. Stock solutions were diluted in a HEPES-buffered physiological saline solution. Test and control solutions contained 0.3% DMSO. Human hERG/HEK293 renal epithelial cells stably transfected with full length hERG cDNA were cultured in Dulbecco's Modified Eagle Medium/Nutrient Mixture F-12 (D-MEM/F-12) supplemented with 10% fetal bovine serum, 100 U/mL penicillin G sodium, 100 μg/mL streptomycin sulfate and 500 μg/mL G418. Before testing, cells in culture dishes were rinsed with Hank's Balanced Salt Solution (HBSS) and detached with accutase. Immediately before use in the IonWorks Barracuda™ system, the cells were washed with buffered physiological saline solution (HB-PS) buffer to remove the accutase and re-suspended in 5 mL of HB-PS. The test article effects were evaluated using IonWorks Barracuda™ systems (Molecular Devices Corporation, Union City, CA). HEPES-buffered intracellular solution for whole cell recordings was loaded into the intracellular compartment of the Population Patch Clamp™ (PPC) planar electrode.
Extracellular buffer (HB-PS) was loaded into PPC planar electrode plate wells (11 μL/well). The cell suspension was pipetted into the wells of the PPC planar electrode (9 μL/well). After establishment of a whole-cell configuration (the perforated patch), membrane currents were recorded using patch clamp amplifier in the IonWorks Barracuda™ system. The current recordings were performed one (1) time before test article application to the cells (baseline) and one (1) time after application of the test article. Test article concentrations were applied to naïve cells. Each application consisted of addition of 20 μL of 2× concentrated test article solution to the total 40 μL of final volume of the extracellular well of the PPC plate. Duration of exposure to each compound concentration was five (5) minutes. hERG current was elicited using a pulse pattern with fixed amplitudes (the first conditioning pre-pulse to 10 mV for 60 second, the second conditioning pre-pulse: −90 mV for 20 ms; the test pulse: +40 mV for 100 ms) from a holding potential of 0 mV (‘zero holding’ procedure). hERG current was measured as a difference between the peak current at 1 ms and at the end of test step to +40 mV. Data acquisition and analyses were performed using the IonWorks Barracuda™ system operation software (version 2.0.2). The decrease in current amplitude after test article application was used to calculate the percent block relative to control. Results for each test article concentration (n≥1) were averaged; the mean and standard deviation values were calculated and used to generate dose-response curves.

[2] = target: T2, canine 5-HT2B receptor (Canis lupus familiaris, UniProt Q50DZ8); assay: Canine 5-HT2B (c5-HT2B) in-vitro assay, FLIPR calcium response; type: cell-based; settings: CHO-K1 cells stably expressing canine 5-HT2B receptor; inhibition of EC80 serotonin calcium response
T2 construct: expressed in transfected cells; host or cells: CHO-K1
Method: CHO-K1 cells stably expressing the canine 5-HT2B receptor were seeded at 20,000 cells per well in 20 μl culture media (DMEM with GlutaMAX™ high glucose+5% dialyzed FBS+10 mM HEPES+1×MEM Non-Essential Amino Acids of a 384-well black plate with clear bottom for at least 18 hours at 37° C. and 5% CO2. The cell plate was loaded with 20 μl/well of the FLIPR® Calcium 5 Assay kit prepared in HBSS containing calcium and magnesium supplemented with 20 mM HEPES and 5 mM Probenecid at pH 7.4 and incubated at 37° C. and 5% CO2 for 30 minutes and then an additional 30 minutes at room temperature. The intracellular calcium response was measured using the FLIPR Tetra® instrument measuring the kinetic response of the Calcium 5 dye at an excitation wavelength of 470-495 nm and emission wavelength of 515-575 nm at room temperature. The cells were initially challenged with a 5× concentration of the antagonist (10 μl/well) after an initial baseline recording and the calcium response was recorded for almost 2 minutes. After the completion of the initial antagonist challenge, the cell plate was incubated at room temperature in the FLIPR Tetra® instrument for 10 minutes. Finally, a second kinetic assay was performed after the 10 minute incubation at room temperature to measure the inhibitory response of the EC80 concentration of serotonin (15 μl/well) after an initial baseline recording. The IC50 concentration was determined for each antagonist tested.

T1 sequence (Q12809 whole entry): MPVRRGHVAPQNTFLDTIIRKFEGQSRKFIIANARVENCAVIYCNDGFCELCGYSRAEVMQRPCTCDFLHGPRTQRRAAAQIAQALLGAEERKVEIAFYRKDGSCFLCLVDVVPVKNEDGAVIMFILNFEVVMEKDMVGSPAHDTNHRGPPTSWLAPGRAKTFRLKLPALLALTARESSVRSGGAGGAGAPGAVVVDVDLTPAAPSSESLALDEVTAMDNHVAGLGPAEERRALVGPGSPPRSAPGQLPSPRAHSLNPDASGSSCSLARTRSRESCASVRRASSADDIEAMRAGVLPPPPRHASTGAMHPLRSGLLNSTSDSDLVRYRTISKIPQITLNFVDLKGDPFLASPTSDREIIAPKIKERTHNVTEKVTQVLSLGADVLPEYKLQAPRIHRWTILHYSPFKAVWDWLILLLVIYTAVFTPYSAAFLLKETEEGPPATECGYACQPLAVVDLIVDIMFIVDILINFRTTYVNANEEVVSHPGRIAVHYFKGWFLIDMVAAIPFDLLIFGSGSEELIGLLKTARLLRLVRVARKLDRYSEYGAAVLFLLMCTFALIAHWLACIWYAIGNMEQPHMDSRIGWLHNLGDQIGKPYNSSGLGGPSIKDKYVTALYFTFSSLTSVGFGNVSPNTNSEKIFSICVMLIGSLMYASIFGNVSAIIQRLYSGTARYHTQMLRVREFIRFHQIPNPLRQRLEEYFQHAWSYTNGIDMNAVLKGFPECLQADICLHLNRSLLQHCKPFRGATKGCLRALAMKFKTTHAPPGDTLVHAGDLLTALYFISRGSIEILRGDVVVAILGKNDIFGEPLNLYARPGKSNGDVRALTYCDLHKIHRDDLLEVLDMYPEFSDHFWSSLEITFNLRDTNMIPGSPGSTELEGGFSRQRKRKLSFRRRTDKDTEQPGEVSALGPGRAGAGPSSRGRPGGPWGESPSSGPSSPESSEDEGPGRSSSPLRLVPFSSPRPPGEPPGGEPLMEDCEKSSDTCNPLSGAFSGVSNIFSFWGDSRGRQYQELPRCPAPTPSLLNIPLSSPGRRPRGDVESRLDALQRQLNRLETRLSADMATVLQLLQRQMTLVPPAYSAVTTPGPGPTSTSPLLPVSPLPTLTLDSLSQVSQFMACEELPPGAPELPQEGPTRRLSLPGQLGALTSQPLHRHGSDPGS
T2 sequence (Q50DZ8 1-434): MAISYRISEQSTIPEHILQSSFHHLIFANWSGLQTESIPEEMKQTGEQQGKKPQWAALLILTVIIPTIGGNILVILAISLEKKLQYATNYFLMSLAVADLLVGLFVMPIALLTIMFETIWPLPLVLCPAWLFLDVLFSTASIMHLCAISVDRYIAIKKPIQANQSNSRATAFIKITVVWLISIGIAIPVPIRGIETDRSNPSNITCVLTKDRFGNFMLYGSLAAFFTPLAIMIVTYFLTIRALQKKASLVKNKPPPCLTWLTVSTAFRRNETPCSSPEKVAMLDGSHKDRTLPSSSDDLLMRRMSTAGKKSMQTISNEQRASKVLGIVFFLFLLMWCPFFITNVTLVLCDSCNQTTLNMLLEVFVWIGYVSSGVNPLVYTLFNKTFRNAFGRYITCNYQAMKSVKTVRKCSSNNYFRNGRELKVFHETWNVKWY

Compound | IC50 [2] | IC50 [1]
O=C(c1ccc(-c2ccc(C(F)(F)F)cc2)cc1)N1CCC(Cc2ncc[nH]2)CC1 [Example 12, (4-((1H-imidazol-2-yl)methyl)piperidin-1-yl)(4′-(trifluoromethyl)-[1,1′-biphenyl]-4-yl)methanone] | 63.9 nM | 4840 nM
Cc1cnc(C2CCN(C(=O)c3ccc(-c4c[nH]c5ccccc45)cc3)CC2)[nH]1 [Example 5, (4-(1H-indol-3-yl)phenyl)(4-(5-methyl-1H-imidazol-2-yl)piperidin-1-yl)methanone] | 0.33 nM | 6630 nM
O=C(c1ccc(-c2ccccc2)cc1)N1CCC(c2ncc[nH]2)CC1 [CA-3, (4-(1H-imidazol-2-yl)piperidin-1-yl)([1,1′-biphenyl]-4-yl)methanone, reference compound] | 0.64 nM | 611 nM
O=C(c1ccc(-c2ccc(F)cc2)cc1)N1CCC(Nc2ncc[nH]2)CC1 [Example 1, (4-((1H-imidazol-2-yl)amino)piperidin-1-yl)(4′-fluoro-[1,1′-biphenyl]-4-yl)methanone] | 2 nM | 1540 nM
O=C(c1ccc(-c2ccccc2)nc1)N1CCC(c2ncc[nH]2)CC1 [Example 11, (4-(1H-imidazol-2-yl)piperidin-1-yl)(6-phenylpyridin-3-yl)methanone] | 4.5 nM | 3280 nM
O=C(c1ccc(-c2ccc(F)cc2)cc1)N1CCC(Cc2ncc[nH]2)CC1 [CA-1, (4-((1H-imidazol-2-yl)methyl)piperidin-1-yl)(4′-fluoro-[1,1′-biphenyl]-4-yl)methanone, reference compound] | 0.3 nM | 546 nM
O=C(c1ccc(Oc2ccccc2)cc1)N1CCC(c2ncc[nH]2)CC1 [Example 8, (4-(1H-imidazol-2-yl)piperidin-1-yl)(4-phenoxyphenyl)methanone] | 0.64 nM | 3140 nM
CS(=O)(=O)c1cccc(-c2ccc(C(=O)N3CCC(c4ncc[nH]4)CC3)cc2)c1 [Example 2, (4-(1H-imidazol-2-yl)piperidin-1-yl)(3′-(methylsulfonyl)-[1,1′-biphenyl]-4-yl)methanone] | 52.3 nM | 72300 nM
Cc1c[nH]c(C2CCN(C(=O)c3ccc(-c4ccc(F)cc4)cc3)CC2)n1 [CA-6, (4′-fluoro-[1,1′-biphenyl]-4-yl)(4-(4-methyl-1H-imidazol-2-yl)piperidin-1-yl)methanone, reference compound] | 7.3 nM | < 30 nM
N#Cc1ccc(-c2ccc(C(=O)N3CCC(c4ncc[nH]4)CC3)cc2)cc1 [CA-5, 4′-(4-(1H-imidazol-2-yl)piperidine-1-carbonyl)-[1,1′-biphenyl]-4-carbonitrile, reference compound] | 453 nM | 54 nM
O=C(c1ccc(-c2ccccc2F)cc1)N1CCC(c2ncc[nH]2)CC1 [CA-7, (4-(1H-imidazol-2-yl)piperidin-1-yl)(2′-fluoro-[1,1′-biphenyl]-4-yl)methanone, reference compound] | 0.09 nM | 1100 nM
O=C(c1ccc2c(c1)[nH]c1ccccc12)N1CCC(c2ncc[nH]2)CC1 [Example 14, (4-(1H-imidazol-2-yl)piperidin-1-yl)(9H-carbazol-2-yl)methanone] | 1.3 nM | 5720 nM
O=C(c1ccc(-c2cccc(Cl)c2)cc1)N1CCC(c2ncc[nH]2)CC1 [Example 10, (4-(1H-imidazol-2-yl)piperidin-1-yl)(3′-chloro-[1,1′-biphenyl]-4-yl)methanone] | 0.51 nM | 2770 nM

The next lines start with results.

IC50 [2] | Compound | IC50 [1]
0.01 nM | O=C(c1ccc(-c2cccc3c2OCO3)cc1)N1CCC(c2ncc[nH]2)CC1 [Example 20, (4-(1H-imidazol-2-yl)piperidin-1-yl)(4-(benzo[d][1,3]dioxol-4-yl)phenyl)methanone] | 3390 nM
3.1 nM | O=C(c1ccc2c(ccn2-c2ccccc2)c1)N1CCC(c2ncc[nH]2)CC1 [Example 21, (4-(1H-imidazol-2-yl)piperidin-1-yl)(1-phenyl-1H-indol-5-yl)methanone] | 4310 nM
18.6 nM | O=C(c1ccc(-c2ccc(C(F)F)cc2)cc1)N1CCC(Nc2ncc[nH]2)CC1 [Example 33, (4-((1H-imidazol-2-yl)amino)piperidin-1-yl)(4′-(difluoromethyl)-[1,1′-biphenyl]-4-yl)methanone] | 5290 nM
1.1 nM | Cc1cnc(C2CCN(C(=O)c3ccc(-c4ccc5cc[nH]c5c4)cc3)CC2)[nH]1 [Example 27, (4-(1H-indol-6-yl)phenyl)(4-(5-methyl-1H-imidazol-2-yl)piperidin-1-yl)methanone] | 9280 nM
0.31 nM | O=C(c1ccc(-c2ccc(C(F)F)cc2)cc1)N1CCC(c2ncc[nH]2)CC1 [Example 16, (4-(1H-imidazol-2-yl)piperidin-1-yl)(4′-(difluoromethyl)-[1,1′-biphenyl]-4-yl)methanone] | 2740 nM
20.5 nM | O=C(c1ccc(-c2ccc(C(F)(F)F)s2)cc1)N1CCC(c2ncc[nH]2)CC1 [Example 22, (4-(1H-imidazol-2-yl)piperidin-1-yl)(4-(5-(trifluoromethyl)thiophen-2-yl)phenyl)methanone] | 2800 nM
0.89 nM | O=C(c1ccc(-c2cccc(C(F)(F)F)c2)cc1)N1CCC(c2ncc[nH]2)CC1 [Example 19, (4-(1H-imidazol-2-yl)piperidin-1-yl)(3′-(trifluoromethyl)-[1,1′-biphenyl]-4-yl)methanone] | 1470 nM
0.46 nM | O=C(c1ccc(-c2ccc(C(F)F)cc2)cc1)N1CCC(Cc2ncc[nH]2)CC1 [Example 25, (4-((1H-imidazol-2-yl)methyl)piperidin-1-yl)(4′-(difluoromethyl)-[1,1′-biphenyl]-4-yl)methanone] | 3400 nM
0.01 nM | O=C(c1ccc(-n2ccc3ccccc32)cc1)N1CCC(c2ncc[nH]2)CC1 [Example 18, (4-(1H-imidazol-2-yl)piperidin-1-yl)(4-(1H-indol-1-yl)phenyl)methanone] | 3400 nM
4.5 nM | Cc1cnc(C2CCN(C(=O)c3ccc4c(-c5ccccc5)c[nH]c4c3)CC2)[nH]1 [Example 31, (4-(5-methyl-1H-imidazol-2-yl)piperidin-1-yl)(3-phenyl-1H-indol-6-yl)methanone] | 19600 nM
1.4 nM | O=C(c1ccc2c(-c3c[nH]c4ccccc34)c[nH]c2c1)N1CCC(c2ncc[nH]2)CC1 [Example 29, [4-(1H-imidazol-2-yl)-1-piperidyl]-[3-(1H-indol-3-yl)-1H-indol-6-yl]methanone] | 27100 nM
0.65 nM | O=C(c1ccc2c(c1)oc1ccccc12)N1CCC(c2ncc[nH]2)CC1 [Example 15, (4-(1H-imidazol-2-yl)piperidin-1-yl)(dibenzo[b,d]furan-3-yl)methanone] | 2010 nM
1.2 nM | O=C(c1ccc2c(-c3cccc4[nH]ccc34)c[nH]c2c1)N1CCC(c2ncc[nH]2)CC1 [Example 28, (4-(1H-imidazol-2-yl)piperidin-1-yl)(1H,1′H-[3,4′-biindol]-6-yl)methanone] | > 30000 nM
7.3 nM | O=C(c1ccc2c(-c3ccccc3)c[nH]c2c1)N1CCC(c2ncc[nH]2)CC1 [Example 32, (4-(1H-imidazol-2-yl)piperidin-1-yl)(3-phenyl-1H-indol-6-yl)methanone] | 15200 nM
